Drawing on ChEMBL document CHEMBL1130756, “Synthesis and cytotoxic activity of novel 10-alkylated docetaxel analogs” (1998), this text covers GI50 for nine compounds.

Structures are written as SMILES. ≈ marks a conversion by molar mass, not a printed value.

The test system of one experiment is PC-6. In words: Concentration required to inhibit the growth of human lung cancer (PC-6)cell lines by 50% on 72 hr continuous exposure. The format is functional. Particulars: PC-6, 72 h.
In another experiment the test system is P388. The experiment is described as follows: Concentration required to inhibit the growth of mouse leukemia (P388) cell lines by 50% on 72 h continuous exposure. The format is functional. Particulars: P388, 72 h.

`CC(=O)CC[C@H]1C(=O)[C@]2(C)[C@@H](O)CC3OC[C@@]3(OC(C)=O)[C@H]2[C@H](OC(=O)c2ccccc2)[C@]2(O)C[C@H](OC(=O)[C@H](O)[C@@H](NC(=O)OC(C)(C)C)c3ccccc3)C(C)=C1C2(C)C` (stereo partly drawn): the GI50 in the experiment with PC-6 came to 0.266 ng/mL (≈ 0.000309 µM); in the experiment with P388, 7.12 ng/mL (≈ 0.00826 µM).
In the same order, the values of `CC(=O)NCCC[C@H]1C(=O)[C@]2(C)[C@@H](O)CC3OC[C@@]3(OC(C)=O)[C@H]2[C@H](OC(=O)c2ccccc2)[C@]2(O)C[C@H](OC(=O)[C@H](O)[C@@H](NC(=O)OC(C)(C)C)c3ccccc3)C(C)=C1C2(C)C` (stereo partly drawn) are 10.5 ng/mL (≈ 0.0118 µM) and 71.8 ng/mL (≈ 0.0806 µM).
As for `CC(=O)O[C@@]12COC1C[C@H](O)[C@@]1(C)C(=O)[C@H](CCCO)C3=C(C)[C@@H](OC(=O)[C@H](O)[C@@H](NC(=O)OC(C)(C)C)c4ccccc4)C[C@@](O)([C@@H](OC(=O)c4ccccc4)[C@@H]12)C3(C)C` (stereo partly drawn), the GI50 in the experiment with PC-6 turned out to be 0.777 ng/mL (≈ 0.000914 µM); with P388 it was 15.5 ng/mL (≈ 0.0182 µM).
In the same order, the values of `CCOC(=O)CC[C@H]1C(=O)[C@]2(C)[C@@H](O)CC3OC[C@@]3(OC(C)=O)[C@H]2[C@H](OC(=O)c2ccccc2)[C@]2(O)C[C@H](OC(=O)[C@H](O)[C@@H](NC(=O)OC(C)(C)C)c3ccccc3)C(C)=C1C2(C)C` (stereo partly drawn) are 1.35 ng/mL (≈ 0.00151 µM) and 4.31 ng/mL (≈ 0.00483 µM).
`COC(=O)CC[C@H]1C(=O)[C@]2(C)[C@@H](O)CC3OC[C@@]3(OC(C)=O)[C@H]2[C@H](OC(=O)c2ccccc2)[C@]2(O)C[C@H](OC(=O)[C@H](O)[C@@H](NC(=O)OC(C)(C)C)c3ccccc3)C(C)=C1C2(C)C` (stereo partly drawn): the GI50 with PC-6 worked out at 0.771 ng/mL (≈ 0.000878 µM); in the experiment with P388, 3.3 ng/mL (≈ 0.00376 µM).
On the same counts, the results for `CC(=O)O[C@@]12COC1C[C@H](O)[C@@]1(C)C(=O)[C@H](CCC#N)C3=C(C)[C@@H](OC(=O)[C@H](O)[C@@H](NC(=O)OC(C)(C)C)c4ccccc4)C[C@@](O)([C@@H](OC(=O)c4ccccc4)[C@@H]12)C3(C)C` (stereo partly drawn) are 0.681 ng/mL (≈ 0.000806 µM) and 18.4 ng/mL (≈ 0.0218 µM).
Take `CC(=O)O[C@@]12COC1C[C@H](O)[C@@]1(C)C(=O)[C@H](CCC(=O)O)C3=C(C)[C@@H](OC(=O)[C@H](O)[C@@H](NC(=O)OC(C)(C)C)c4ccccc4)C[C@@](O)([C@@H](OC(=O)c4ccccc4)[C@@H]12)C3(C)C` (stereo partly drawn): the GI50 is 934 ng/mL (≈ 1.08 µM) in the experiment on PC-6 and 1870 ng/mL (≈ 2.16 µM) in the experiment with P388.
Take `CC(=O)O[C@@]12COC1C[C@H](O)[C@@]1(C)C(=O)[C@H](CCCN)C3=C(C)[C@@H](OC(=O)[C@H](O)[C@@H](NC(=O)OC(C)(C)C)c4ccccc4)C[C@@](O)([C@@H](OC(=O)c4ccccc4)[C@@H]12)C3(C)C` (stereo partly drawn): the GI50 came to 236 ng/mL (≈ 0.278 µM) in the experiment with PC-6 and 1520 ng/mL (≈ 1.79 µM) with P388.
For the compound `CC(=O)O[C@@]12CO[C@@H]1C[C@H](O)[C@@]1(C)C(=O)[C@H](O)C3=C(C)[C@@H](OC(=O)[C@H](O)[C@@H](NC(=O)OC(C)(C)C)c4ccccc4)C[C@@](O)([C@@H](OC(=O)c4ccccc4)[C@H]21)C3(C)C.O.O.O` [DOCETAXEL], the results for the GI50 with PC-6 and in the experiment on P388 were 1.13 ng/mL and 6.74 ng/mL, respectively.
